In patent publication US5942532A, “2-substituted phenyl-benzimidazole antibacterial agents” (Ortho Pharmaceutical Corporation, priority 1997, dated 1999) one finds IC50 data, which are given here for 31 molecules.

This test concerns the target T1, Kinase A and Spo0F (Bacillus subtilis, UniProt P16497).
T1 construct: made in house; host or cells: recombinant E. coli
T1 sequence (P16497 1-606): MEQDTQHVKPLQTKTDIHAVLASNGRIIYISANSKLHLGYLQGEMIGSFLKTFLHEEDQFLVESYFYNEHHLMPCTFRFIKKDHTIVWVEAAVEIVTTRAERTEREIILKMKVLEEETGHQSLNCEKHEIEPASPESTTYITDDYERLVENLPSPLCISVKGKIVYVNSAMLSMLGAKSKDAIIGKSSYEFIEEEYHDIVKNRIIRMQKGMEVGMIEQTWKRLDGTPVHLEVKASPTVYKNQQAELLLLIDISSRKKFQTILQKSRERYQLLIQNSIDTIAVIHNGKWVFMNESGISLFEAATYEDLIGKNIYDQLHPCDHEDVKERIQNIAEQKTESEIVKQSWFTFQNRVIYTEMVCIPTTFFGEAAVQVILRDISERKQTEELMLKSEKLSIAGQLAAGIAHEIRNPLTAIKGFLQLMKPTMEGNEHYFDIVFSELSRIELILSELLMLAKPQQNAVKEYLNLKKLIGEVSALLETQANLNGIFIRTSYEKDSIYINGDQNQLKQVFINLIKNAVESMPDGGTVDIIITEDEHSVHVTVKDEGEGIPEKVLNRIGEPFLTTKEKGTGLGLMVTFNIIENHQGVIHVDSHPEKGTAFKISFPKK
Put plainly: Autophosphorylation of Kinase A and Transphosphorylation of Spo0F Assay (HPK in vitro assay). The test is classed as biochemical. Conditions: Table 1, KinA/Spo0F phosphorylation. On the procedure:
Autophosphorylation of Kinase A and Transphosphorylation of Spo0F Assay
To study the effect of the compounds of the present invention on the signal transduction process in bacteria, the inhibiting effect of the compounds on the sporulation operon proteins Kinase A and Spo0F was examined. Specifically, the inhibition of autophosphorylation of Kinase A and the transphosphorylation of Spo0F was determined in the following assays. The Spo0F response regulator is the primary substrate for phosphorylation by the protein kinase, Kin A, involved in the sporulation process in bacteria. See D. Burbulys, K. A. Trach, J. A. Hoch, Cell, 64, 545-552 (1991). Spo0F and KinA were prepared from recombinant E. coli overexpressing the proteins (J. Cavanagh et al, Amino Acids, 6, 131-140 (1994) and references therein).
The following stock reagents were either prepared and used promptly or stored at the indicated temperature:
8×Salts: 2 M KCl (5 mL), 1 M MgCl2 (800 mL), 1 M CaCl2 (100 mL), 10 mg/mL phenylmethylsulfonyl fluoride (200 mL), 1 M dithioreitol (50 mL), 0.25 M Na2 EDTA (32 mL) and H2 O 3.82 mL (-20° C.)
5×Loading Dye: 0.5M TRIS-HCl, pH 6.8 (7.5 mL), 10% SDS (2 mL) 0.1% bromophenol blue (0.5 mL), 100% glycerol (3 mL) and 12.5 M 2-mercaptoethanol (0.3 mL)
1-1.3 mg/mL KinA: 15 mM TRIS-HCl, pH 8.0, 6 mM KCl; 4 mM 2-mercaptoethanol;40% glycerol (-20° C.)
1 mg/mL Spo0F: 17.5 mM TRIS-HCl, pH 8.0; 0.7 mM KCl; 0.7 mM MgCl2; 0.7 mM CaCl2; 5 mM 2-mercaptoethanol; 30% glycerol (-20° C.)
5% Stacking Gel: 40% 29:1 acrylamide:bis acrylamide (1.25 mL), 0.5 M TRIS-HCl, pH 6.8 (2.5 mL), 10% SDS (0.1 mL), D-H2 O (6.15 mL) 10% ammonium persulfate (100 mL) and TEMED (25 mL)
SDS Running Buffer: TRIS-BASE (3.02 g), glycine (14.4 g), SDS (1 g), D-H2 O (to 1 L)
The reaction mixture was prepared from 8×Salts (87 μL), 1M TRIS, pH 8 (118 μL), 50% glycerol (63 μL), Spo0F (14.1 μL) and KinA (7.0 μL). Microcentrifuge tubes were charged with the reaction mixture (18.5 μL) and a 1.0 mM solution of the test compound in 5% DMSO (18.5 μL), and incubated for 15 min on ice. 100 mM ATP solution (3.0 μl, containing 625 μCi [^32 P]ATP) was added, and the mixture left for 10 minutes at room temperature. The reaction was quenched with 5× loading dye (10 μL per tube) and the samples were loaded on a prepared 5% Stacking Gel, or stored on dry ice until ready for use. The prepared wells were filled with SDS Running Buffer, samples were loaded into the wells, and 80 volts were applied to the gel until the dye front reached the bottom of the stacking gel. The voltage was then increased to 250 volts until electrophoresis was complete. Radioactive bands in the gel corresponding to phosphorylated KinA and Spo0F were imaged and quantitated with a phosphoimager.
If either enzyme was inhibited (as evidenced by the absence of labelled protein in the developed gel), an IC50 was calculated by running the assay with a range of inhibitor concentrations from 1 to 500 μM. After electrophoresis of the reaction mixtures, percent inhibition was determined by measuring the concentration of radioactive phosphorus with a phosphoimager and calculating the values using a software program (BioRad Molecular Analyst).

Structures are written as SMILES. Where two headings read alike, the source gives them in different places.

Where the note is “in µM”, `N=C(N)c1ccc2nc(-c3ccc(-c4ccccc4)cc3)[nH]c2c1` [Example 2] registered an IC50 of 86.

With `N=C(N)c1ccc2nc(-c3ccc(C(F)(F)F)cc3)[nH]c2c1` [Example 3], the IC50 (in µM) is 169.

Turning to `CC(C)c1ccc(-c2nc3ccc(C(=N)N)cc3[nH]2)cc1` [Example 4], the IC50 (read-out: IC50) was determined as 219 µM.

Turning to `N=C(N)c1ccc2nc(-c3ccc(N(c4ccccc4)c4ccccc4)cc3)[nH]c2c1` [Example 5], the IC50 (in µM) was 17.4.

In turn, `N=C(N)c1ccc2nc(-c3cc(OCc4ccccc4)cc(OCc4ccccc4)c3)[nH]c2c1` [Example 6] showed an IC50 (in µM) of 15.9.

Where the note is “in µM”, `N=C(N)c1ccc2nc(-c3cc(C(F)(F)F)cc(C(F)(F)F)c3)[nH]c2c1` [Example 7] had an IC50 of 30.8.

Molecule `CCC(C)(C)c1ccc(-c2nc3ccc(C(=N)N)cc3[nH]2)cc1` [Example 8] had an IC50 (in µM) of 37.6.

Where the note is “in µM”, `CC(C)(C)c1cc(-c2nc3ccc(C(=N)N)cc3[nH]2)cc(C(C)(C)C)c1O` [Example 9] had an IC50 of 75.9.

Take `CC(C)(C)c1ccc(-c2nc3ccc(C(=N)N)cc3[nH]2)cc1` [Example 10]: for the setting “in µM”, the IC50 came out at 70.6.

For the setting “in µM”, `N=C(N)c1ccc2nc(-c3ccc(OCc4ccc([N+](=O)[O-])cc4)cc3)[nH]c2c1` [Example 11] returned an IC50 of 19.4.

On to `CCCCCCCCCCOc1ccc(-c2nc3ccc(C(=N)N)cc3[nH]2)cc1OCCCCCCCCCC` [Example 12], for which the IC50 (in µM) is 8.3.

Molecule `N=C(N)c1ccc2nc(-c3ccc(C=Cc4ccccc4)cc3)[nH]c2c1` [Example 13] displayed an IC50 (in µM) of 21.5.

Where the note is “in µM”, `CCCCN(CCCC)c1ccc(-c2nc3ccc(C(=N)N)cc3[nH]2)cc1` [Example 14] displayed an IC50 of 35.5.

Turning to `N=C(N)c1ccc2nc(-c3ccc(OCc4ccccc4)cc3)[nH]c2c1` [Example 15], under “in µM”, the IC50 was found to be 60.8.

In turn, `N=C(N)c1ccc2nc(-c3ccc(OCc4ccccc4)c(OCc4ccccc4)c3)[nH]c2c1` [Example 16] registered an IC50 (in µM) of 50.7.

The molecule `N=C(N)c1ccc2nc(-c3ccc(F)cc3)[nH]c2c1` [Example 17] had an IC50 (in µM) of 480.

For the setting “in µM”, `N=C(N)c1ccc2nc(-c3cc(I)c(O)c(I)c3)[nH]c2c1` [Example 18] yielded an IC50 of 254.

For the molecule `N=C(N)c1ccc2nc(-c3cc(Cl)cc(Cl)c3)[nH]c2c1` [Example 19], the IC50 (in µM) was determined as 100.

With `CC(C)(C)c1cc(-c2nc3ccc(C(=N)N)cc3[nH]2)cc(C(C)(C)C)c1` [Example 20], for the setting “in µM”, the IC50 is 19.

For the molecule `N=C(N)c1ccc2nc(-c3cc(-c4ccccc4)cc(-c4ccccc4)c3)[nH]c2c1` [Example 21], where the note is “in µM”, the IC50 was found to be 31.

With `N=C(N)c1ccc2nc(-c3ccc(NCc4ccccc4)cc3)[nH]c2c1` [Example 22], the IC50 (in µM) is 222.

For the molecule `CC(C)(C)c1cc(-c2nc3ccc(C(=N)N)cc3[nH]2)ccc1O` [Example 23], the IC50 (in µM) was determined as 22.

`N#CCCN(CCC#N)c1ccc(-c2nc3ccc(C(=N)N)cc3[nH]2)cc1` [Example 25] yielded an IC50 (in µM) of 35.6.

For the molecule `N=C(N)c1ccc2nc(-c3ccc(N(Cc4ccccc4)Cc4ccccc4)cc3)[nH]c2c1` [Example 26], where the note is “in µM”, the IC50 worked out at 17.

Regarding `N=C(N)c1ccc2nc(-c3ccccc3O)[nH]c2c1` [Example 27], the IC50 (read-out: IC50) came to 465 µM.

Molecule `COc1cc(OC)c(-c2nc3ccc(C(=N)N)cc3[nH]2)cc1Br` [Example 28] had an IC50 (in µM) of 66.

With `COc1c(-c2nc3ccc(C(=N)N)cc3[nH]2)cc(C(C)(C)C)cc1C(C)(C)C` [Example 29], where the note is “read-out: IC50”, the IC50 came out at 76 µM.

As for `CC(C)(C)c1cc(-c2nc3ccc(C(=N)N)cc3[nH]2)c(O)c(C(C)(C)C)c1` [Example 30], the IC50 (in µM) was determined as 8.5.

Take `N=C(N)c1ccc2nc(-c3cc(I)cc(I)c3O)[nH]c2c1` [Example 31]: the IC50 (in µM) was 30.8.

As for `N=C(N)c1ccc2nc(-c3cc(Br)cc(Br)c3O)[nH]c2c1` [Example 32], where the note is “in µM”, the IC50 came out at 51.1.

As for `N=C(N)c1ccc2nc(-c3cc([N+](=O)[O-])cc([N+](=O)[O-])c3O)[nH]c2c1` [Example 33], the IC50 (in µM) is listed as 74.7.
